{"source": "ChEMBL document CHEMBL1121889", "about": "“Preparation and analgesic properties of amino acid derivatives of (-)-5,9 alpha-diethyl-2'-hydroxybenzomorphan” (J Med Chem, 1981)", "format_in_all_cases": "protein assay", "key": {"[1]": {"target": "T1, Opioid receptor (Rattus norvegicus, UniProt P33533+P34975+P33535)", "experiment": "Compound was tested for its ability to displace [3H]naloxone from Opioid receptors in absence of NaCl"}, "[2]": {"target": "T1, Opioid receptor", "experiment": "Compound was tested for its ability to displace [3H]naloxone from Opioid receptors in presence of NaCl (100 mM)"}, "[3]": {"target": "T1, Opioid receptor", "experiment": "Compound was tested for its ability to displace [3H]- naloxone] from Opioid receptors in absence of NaCl"}, "[4]": {"target": "T1, Opioid receptor", "experiment": "Compound was tested for its ability to displace [3H]- naloxone] from Opioid receptors in presence of NaCl (100 mM)"}}, "data": [{"smiles": "CCC1C2Cc3ccc(O)cc3C1(CC)CCN2C(=O)C(N)CC(C)C", "note": "(centres undefined)", "values": [{"measurement": "IC50", "setting": "[1]", "result": 1.503, "unit": "µM"}, {"measurement": "IC50", "setting": "[2]", "result": 6.384, "unit": "µM"}]}, {"smiles": "CC[C@H]1[C@H]2Cc3ccc(O)cc3[C@]1(CC)CCN2", "values": [{"measurement": "IC50", "setting": "[3]", "result": 0.02, "unit": "µM"}, {"measurement": "IC50", "setting": "[4]", "result": 0.36, "unit": "µM"}]}, {"smiles": "CCC1C2Cc3ccc(O)cc3C1(CC)CCN2C(=O)C(N)CCCN=C(N)N.Cl", "note": "(centres undefined)", "values": [{"measurement": "IC50", "setting": "[1]", "result": 0.0155, "unit": "µM"}, {"measurement": "IC50", "setting": "[2]", "result": 0.66, "unit": "µM"}]}, {"smiles": "CCC1C2Cc3ccc(O)cc3C1(CC)CCN2C(=O)C(N)CCSC.Cl", "note": "(centres undefined)", "values": [{"measurement": "IC50", "setting": "[1]", "result": 0.301, "unit": "µM"}, {"measurement": "IC50", "setting": "[2]", "result": 5.586, "unit": "µM"}]}, {"smiles": "CCC1C2Cc3ccc(O)cc3C1(CC)CCN2C(=O)CN.Cl", "note": "(centres undefined)", "values": [{"measurement": "IC50", "setting": "[1]", "result": 0.287, "unit": "µM"}, {"measurement": "IC50", "setting": "[2]", "result": 8.184, "unit": "µM"}]}, {"smiles": "CCC1C2Cc3ccc(O)cc3C1(CC)CCN2C(=O)C(N)Cc1ccccc1.Cl", "note": "(stereo in doubt; 2d)", "values": [{"measurement": "IC50", "setting": "[1]", "result": 1.54, "unit": "µM"}, {"measurement": "IC50", "setting": "[2]", "result": 3.35, "unit": "µM"}]}, {"smiles": "CCC1C2Cc3ccc(O)cc3C1(CC)CCN2C(=O)C(N)Cc1ccccc1.Cl", "note": "(stereo in doubt; 2e)", "values": [{"measurement": "IC50", "setting": "[1]", "result": "> 10", "unit": "µM"}, {"measurement": "IC50", "setting": "[2]", "result": "> 10", "unit": "µM"}]}]}
